Data: patent US10799456B2, “Multiple drug lipid nanoparticle composition and related methods for extended drug levels in blood and lymph tissue” (priority 2015, dated 2020)

Columns and labels:
in vivo [1] = conditions: male, Macaca nemestrina, in vivo, sc, Mean drug concentration, Lymph node
Experimental: (§1) Four macaques were divided into two treatment groups (two animals per group). […] Data were normalized to the anti-HIV LNP dose for comparative analysis.
(§2) Plasma was removed, PBMCs were isolated by the density gradient method, and cells were aliquoted into pellets of approximately 2 million PBMCs each. An inguinal lymph node was surgically excised 24 h after drug administration (n=2 per treatment), LNMCs were isolated by passage through a 100-lm nylon cell strainer (Corning, Tewksbury, Mass.), and cells were aliquoted into pellets of approximately 1-2 million LNMCs each. All samples were stored at −80° C. prior to drug analysis.
(§3) Plasma concentrations of all three drugs were analyzed simultaneously by liquid chromatography-tandem mass spectrometry using a recently published method. […] Antimicrob Agents Chemother 2014; 58(5):2675-2680, incorporated herein by reference in its entirety. PBMC and LNMC pellets were lysed using 200 μl water/methanol (1:1 v/v), sonicated for 10 min, and then extracted and analyzed using the same method as cited above. Intracellular concentrations were converted to ng/ml with the assumption that each cell has a volume of 4×10^−9 ml. Alberts B, Johnson A, Lewis J, et al. Molecular Biology of the Cell, 4 ed. Garland Science, New York, 2002, incorporated herein by reference in its entirety.

[2] = Storage stability at 4° C. (fraction of drug bound, dialysis); type: physicochemical
Experimental: To test the long-term stability, the multi-drug nanoparticles were stored under refrigeration at 4° C. and were tested for stability after a prolonged period. The lipid-drug combination particles are stable as determined by both particle size and degree of drug association (Table 12). […] Even the hydrophilic compound, which readily diffuses out of most lipid particles in a number of hours, loses a remarkably low fraction of the associated drug after 8, 12, and 17 months in storage. This exceptional stability provides a substantial advantage for translation to clinical application.

in vivo [3] = conditions: for concentration at 24 h: sc, Mean drug concentration, Plasma
Excerpt: Four young adult male macaques (Macaca nemestrina, 2.9-4.0 kg) were housed and cared for by the Washington National Primate Research Center (WaNPRC) under an approved Institutional Animal Care and Use Committee protocol.
The vehicle for the first suspension was bicarbonate-buffered saline with 3% ethanol and 0.2% bovine serum albumin. The vehicle for the second suspension was bicarbonate-buffered saline with 8% DMSO and 0.1% Tween 20.
as §1, §2, §3
Data were analyzed by paired two-tailed Student's t-test with p<0.05 considered statistically significant.

HIV-2(287) replication = assay: Antiviral activity in HIV-infected CEM-174 cells; type: cell-based; conditions: Human immunodeficiency virus 2, CEM174, LPV:RTV:PMPA fixed 1:1:0.5 (m/m/m), LNP form; read-out: EC50 (nM), Drug-lipid nanoparticles with 3 drug combination
Experimental: The antiviral activity of the three-drug combination in soluble or LNP form was evaluated in HIV-infected CEM-174 cells as described previously. […] J Acquir Immune Defic Syndr 2003; 34(4):387-397, incorporated herein by reference in its entirety. […] The dose of drugs added to cells represents the sum of bound and unbound drugs in these anti-HIV LNP formulations.

[4] = Sucrose gradient test of drug association; type: physicochemical; conditions: 5-20% sucrose gradient, 200,000 g, 4 hr; LPV/RTV/TFV LNPs, single miscible solvent method
Experimental: The sucrose gradient test to determine this characteristic is described in Example 5. Briefly, the sucrose gradient test comprises subjecting the multi-drug lipid nanoparticle to a continuous 5%-20% sucrose gradient and applying a centrifugal force of 200,000 g for 4 hours. The unassociated small molecules separate and float to the less dense fractions, whereas the associated small molecule agents sediment with the stable lipid nanoparticles in the denser gradients. The relative amounts of the unassociated and associated small molecule reagents can be quantified and, thus, compared.
The sucrose gradient test centrifugation test separates any unbound drugs from multi-drug lipid nanoparticles by sedimentation of lipid-drug particles through a sucrose gradient with increasing density to strip off unbound drugs. Under these conditions, all the free drugs in solution remained at (or floated to) the top of gradient where the sucrose density is low. Specifically, using a continuous gradient of 5-20% (with 65% cushion) sucrose, the lipid-drug particle mixture was subjected to centrifugal force at 200,000 g for 4 hr. Through this process, we were able to separate bound and unbound drug fractions. […] It is noted that the observed percentage of multi drug lipid nanoparticle association for the other two drugs (LPV and RTV) are consistent with data in Table 11.

[5] = cited from earlier work
HIV-1 = assay: microbe, parasite or virus in culture; conditions: Human immunodeficiency virus 1, read-out: EC50 in LNP form
[6] = Drug incorporation/encapsulation (association) efficiency of multi-drug LNPs by dialysis; type: physicochemical; conditions: for Degree of incorporation (% total): anti-HIV LNPs LPV/RTV/PMPA
Experimental: The anti-HIV LNP formulations contain both unbound drug and drugs bound to lipid nanoparticles. […] Drugs were quantified by LC-MS/MS using acetonitrile precipitation. Encapsulation efficiency (EE) was calculated as follows: […]

[7] = % Drug association to particles by assembly method; type: physicochemical
Excerpt: Select one or two drugs hydrophilic and water soluble (Class 2) drugs listed in Table 19 (for example, tenofovir and/or emtricitabine and/or lamivudine). • 3. Select the excipient combination (for example, 9 parts DSPC and 1 part PEG-DSPE). • 4. Prepare a single-phase miscible solvent that enables full solubilization of the chosen water-insoluble Class 1 drugs and water soluble Class 2 drugs plus the excipients from step 3. Examples include CHCl3:Methanol:Water (65:35:4); CHCl3:Ethanol:Water (65:35:4); CHCl3:Propanol:Water (65:35:4); and CHCl3:Hexanol:Water (65:35:4). • 5. The components in Steps 1, 2 and 3 are solubilized with the miscible solvent in step 4. • 6. The drugs (steps 1 and 2) as well as excipients (step 3) and the miscible solvent (step 4) are dried under reduced pressure with assistance of a combination of heat, reduced pressure and/or aerosolization to provide for uniformity and efficiency of drying. • 7. The dehydrated composition is heated above gel-to-liquid phase transition temperature of the excipient mixture (e.g., 50° C.). • 8. A buffered saline solution is prepared and the temperature is equilibrated to the same temperature as dehydrated composition. • 9. The buffered saline solution and dehydrated composition are gradually combined and maintained at the defined (e.g., 50° C.) for 3 hr. • 10. The resulting hydrated multi-drug lipid nanoparticles are size-reduced by sheering or forcing through small orifice or pressurized filter apparatus while maintaining at the defined temperature (in liquid phase of lipidic excipients).

[8] = pH dependent drug release from LPV/RTV/TFV lipid nanoparticles; type: physicochemical; conditions: 2 hrs
Excerpt: As described above, we established the pH-dependent association of various drugs to lipids at neutral pH and the consequent release of the drugs when pH is lowered. Also described above, this stable integration and pH-dependent release of drugs from the multiple drug lipid nanoparticles was consistent for both lipophilic and water soluble compounds. To confirm the pH dependent release of the individual drugs from the multiple drug combination lipid nanoparticles, LPV/RTV/PMPA(TFV) lipid nanoparticles, assembled as described above, were subjected to different pH environments, and the free drug component of the supernatant was assayed to determine the amount of release. […] When a lipid nanoparticle is localized in tissues and taken up by HIV-infected cells, the incorporated antiretroviral drugs are then released inside the cell organelles (such as endosome and lysosomes) when the pH is lowered.

[9] = male, Macaca nemestrina, in vivo

Question: Which concentration at 24 h (in vivo [1]; Anti-HIV LNP treatment) does the source give for `Cc1cccc(C)c1OCC(=O)N[C@@H](Cc1ccccc1)[C@@H](O)C[C@H](Cc1ccccc1)NC(=O)[C@H](C(C)C)N1CCCNC1=O` [Lopinavir (LPV), Lopinavir] here?
Answer: 1.212 ± 0.0098 µg/mL

Question: And the concentration at 24 h (in vivo [1]; Free drug treatment)?
Answer: 0 µg/mL

Question: What about the “Fraction of drug bound in multi-drug nanoparticles (% total)” value (from here on “Fraction of drug bound … (% total)”) ([2]; 0 months) of the same compound?
Answer: 82.70 ± 7.00%

Question: What about the “Fraction of drug bound … (% total)” value ([2]; 8 months) of the same compound?
Answer: 95.33 ± 7.53%

Question: What about the “Fraction of drug bound … (% total)” value ([2]; 12 months) of the same compound?
Answer: 94.62 ± 11.86%

Question: And the “Fraction of drug bound … (% total)” value ([2]; 17 months, one batch)?
Answer: 92.89%

Question: What about the “AUC 0-8 (%) of total, LNP” value (in vivo [3]; [9]) of the same compound?
Answer: 9.9%

Question: What about the “AUC 8-168 (%) of total, LNP” value (in vivo [3]; [9]) of the same compound?
Answer: 90.1%

Question: What about the “AUC fraction (% of total) Anti-HIV LNP 24-168 h” value (in vivo [3]; [9]) of the same compound?
Answer: 62.8 ± 9.9%

Question: And the concentration at 24 h (in vivo [3]; male, Macaca nemestrina, in vivo, Anti-HIV LNP treatment)?
Answer: 0.596 ± 0.123 µg/mL

Question: And the concentration at 24 h (in vivo [3]; male, Macaca nemestrina, in vivo, Free drug treatment)?
Answer: 0.0245 ± 0.0263 µg/mL

Question: And the “AUC Free drug 0-168 h” value (in vivo [3]; plasma, sc 25/14.3/17.1 mg/kg LPV/RTV/PMPA, four animals)?
Answer: 3.83 ± 4.04 µg·h/mL

Question: And the EC50 (HIV-2(287) replication)?
Answer: 3 ± 0.8 nM

Question: And the “% association to lipid-drug particles (bound fraction)” value [4]?
Answer: 81.8%

Question: What about the “Water solubility @ 25° C.” value [5] of the same compound?
Answer: 7.7 ng/mL

Question: What about the EC50 (HIV-1) of the same compound?
Answer: 0.03 ± 0.0008 µM

Question: And the “% particle-bound” value ([6]; Combination 1, lipid:LPV:RTV:TFV 115:10:5:15, large scale)?
Answer: (86.4 ± 0.9) %

Question: And the “% particle-bound” value ([6]; Combination 3, lipid:LPV:EFV:TFV 200:26.6:20:40, large scale)?
Answer: (76.6) %

Question: What about the “Degree of incorporation (% total)” value ([6]; clinical scale (15-40 ml)) of the same compound?
Answer: 93.6 ± 5.5%

Question: What about the “Degree of incorporation (% total)” value ([6]; laboratory scale (0.1-0.4 ml)) of the same compound?
Answer: 74.2 ± 7.3%

Question: What about the “% Drug Association to Particles, LNPs from mixture of dual solvent method” value [7] of the same compound?
Answer: 80-100%

Question: What about the “% Drug Association to Particles, LNPs from single, miscible solvent method” value [7] of the same compound?
Answer: 90-100%

Question: What about the “% Drug released from anti-HIV nanoparticles” value (“% Drug released” below) ([8]; pH 4.0, 37° C.) of the same compound?
Answer: 93.7 ± 1.2%

Question: What about the “% Drug released” value ([8]; pH 5.5, 37° C.) of the same compound?
Answer: 28.9 ± 1.4%

Question: What about the “% Drug released” value ([8]; pH 6.5, 37° C.) of the same compound?
Answer: 3.9 ± 2.7%

Question: What about the “% Drug released” value ([8]; pH 7.4, 37° C.) of the same compound?
Answer: 1 ± 0.6%
